# Like-named read-outs stand apart in the source and are kept apart here.
# Legend:
# PfCDPK1 = PfCDPK1 (Plasmodium falciparum (isolate 3D7), UniProt P62344); assay: biochemical; details: for inhibition at 3 µM: read-out: PfCDPK1 (% inhibition @ 3 uM)
# [1] = test system: human lymphocyte (CRL8155); assay: Growth inhibition of human cell line CRL8155
# PfCDPK4 = PfCDPK4 (Plasmodium falciparum (isolate 3D7), UniProt Q8IBS5); assay: biochemical; details: for inhibition at 3 µM: read-out: PfCDPK4 (% inhibition @ 3 uM)
# [2] = test system: human promyelocytic leukemia (HL-60); assay: Growth inhibition of human cell line HL-60
# CpCDPK1 = CpCDPK1 (Cryptosporidium parvum (strain Iowa II), UniProt A3FQ16); assay: biochemical; type: biochemical; details: read-out: IC50 (μM) CpCDPK1
# TgCDPK1 = TgCDPK1 (Toxoplasma gondii, UniProt Q9BJF5); type: biochemical
# Sequence of TgCDPK1 (Q9BJF5 1-507): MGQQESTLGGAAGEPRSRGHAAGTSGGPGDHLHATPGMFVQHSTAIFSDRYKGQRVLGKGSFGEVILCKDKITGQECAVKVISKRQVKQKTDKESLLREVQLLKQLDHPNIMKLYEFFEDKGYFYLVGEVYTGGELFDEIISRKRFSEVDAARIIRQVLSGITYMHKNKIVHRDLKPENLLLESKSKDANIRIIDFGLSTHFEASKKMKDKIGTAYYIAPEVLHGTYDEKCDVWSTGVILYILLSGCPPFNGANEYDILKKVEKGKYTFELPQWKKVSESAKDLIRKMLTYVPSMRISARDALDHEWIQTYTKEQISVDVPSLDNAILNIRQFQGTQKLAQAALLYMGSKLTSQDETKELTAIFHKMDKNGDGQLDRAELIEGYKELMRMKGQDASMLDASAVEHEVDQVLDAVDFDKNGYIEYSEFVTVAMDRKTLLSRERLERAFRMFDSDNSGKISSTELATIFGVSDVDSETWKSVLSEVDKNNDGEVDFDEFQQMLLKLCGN
# Sequence of CpCDPK1 (A3FQ16 1-538): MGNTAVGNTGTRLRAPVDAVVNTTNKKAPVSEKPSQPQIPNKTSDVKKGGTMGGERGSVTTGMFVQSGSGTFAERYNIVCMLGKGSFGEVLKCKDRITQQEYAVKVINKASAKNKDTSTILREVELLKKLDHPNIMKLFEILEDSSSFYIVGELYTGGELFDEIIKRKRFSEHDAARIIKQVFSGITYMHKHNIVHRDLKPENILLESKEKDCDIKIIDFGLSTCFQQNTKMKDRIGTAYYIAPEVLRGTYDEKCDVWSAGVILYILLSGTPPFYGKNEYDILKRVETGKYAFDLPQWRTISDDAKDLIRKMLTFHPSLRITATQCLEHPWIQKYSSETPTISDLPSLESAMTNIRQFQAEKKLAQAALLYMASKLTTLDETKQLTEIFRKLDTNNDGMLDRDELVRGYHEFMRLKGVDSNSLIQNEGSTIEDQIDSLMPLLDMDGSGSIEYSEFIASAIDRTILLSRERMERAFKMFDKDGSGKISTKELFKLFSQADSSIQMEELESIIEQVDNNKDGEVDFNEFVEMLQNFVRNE
SMILES,EC50 (PfCDPK1) [nM],EC50 (PfCDPK4) [nM],further results
"CC(C)(C)c1nc(-c2cnc3ccccc3c2)c2c(N)nccn12 [Compound 72, 3-tert-butyl-1-(quinolin-3-yl)imidazo[1,5-a]pyrazin-8-amine]",948,241,"Cell Toxicity CRL8155, % at 10 μM [1]: <30% at 10 μM; Cell Toxicity HL60, % at 10 μM [2]: <30% at 10 μM"
NCCCCCC(=O)Nc1nc2ccc(C(=O)c3ccccc3)cc2[nH]1 [Compound 105],–,–,"Cell Toxicity CRL8155, % at 10 μM [1]: <30% at 10 μM; Cell Toxicity HL60, % at 10 μM [2]: <30% at 10 μM"
O=C(CCCC1CCNCC1)Nc1nc2ccc(C(=O)c3ccccc3)cc2[nH]1 [Compound 115],–,–,"Cell Toxicity CRL8155, % at 10 μM [1]: <30% at 10 μM; Cell Toxicity HL60, % at 10 μM [2]: <30% at 10 μM"
"N#Cc1cccc(-c2ccc(-c3nn(CC4CCNCC4)c4ncnc(N)c34)cc2)c1 [Compound 74, 4′-(4-amino-1-(piperidin-4-ylmethyl)-1H-pyrazolo[3,4-d]pyrimidin-3-yl)biphenyl-3-carbonitrile]",347,1010,–
"CC(C)n1nc(-c2ccc3cc(OCc4ccc(C(C)(C)C)cc4)ccc3c2)c2c(N)ncnc21 [Compound 54, 3-(6-(4-tert-butylbenzyloxy)naphthalen-2-yl)-1-isopropyl-1H-pyrazolo[3,4-d]pyrimidin-4-amine]",47.8,438,–
"Cn1ccc2cc(-c3nn(CC4CCNCC4)c4ncnc(N)c34)ccc21 [Compound 57, 3-(1-methyl-1H-indol-5-yl)-1-(piperidin-4-ylmethyl)-1H-pyrazolo[3,4-d]pyrimidin-4-amine]",705,243,–
"CC(C)n1nc(-c2ccc3c(ccn3C)c2)c2c(N)ncnc21 [Compound 20, 1-isopropyl-3-(1-methyl-1H-indol-5-yl)-1H-pyrazolo[3,4-d]pyrimidin-4-amine]",309,231,"Cell Toxicity CRL8155, % at 10 μM [1]: <30% at 10 μM; IC50 (CpCDPK1; Table 8): 0.003 µM; Cell Toxicity HL60, % at 10 μM [2]: <30% at 10 μM"
"CC(C)COc1ccc2cc(-c3nn(C(C)C)c4ncnc(N)c34)ccc2c1 [Compound 43, 3-(6-isobutoxynaphthalen-2-yl)-1-isopropyl-1H-pyrazolo[3,4-d]pyrimidin-4-amine]",278,1200,–
CC(C)n1nc(-c2ccc3cc(OC(=O)c4cccc(Cl)c4)ccc3c2)c2c(N)ncnc21 [Compound 85],229,479,–
"CN(C)c1ccc2cc(-c3nn(CC4CCNCC4)c4ncnc(N)c34)ccc2n1 [Compound 68, 6-(4-amino-1-(piperidin-4-ylmethyl)-1H-pyrazolo[3,4-d]pyrimidin-3-yl)-N,N-dimethylquinolin-2-amine]",–,–,IC50 (CpCDPK1; Table 8): > 3 µM
"CC(C)n1nc(-c2ccc3cc(OCc4ccccc4Cl)ccc3c2)c2c(N)ncnc21 [Compound 46, 3-(6-(2-chlorobenzyloxy)naphthalen-2-yl)-1-isopropyl-1H-pyrazolo[3,4-d]pyrimidin-4-amine]",477,> 3000,"Cell Toxicity CRL8155, % at 10 μM [1]: <30% at 10 μM; Cell Toxicity HL60, % at 10 μM [2]: <30% at 10 μM"
"COc1ccc(-c2nn(C(C)C)c3ncnc(N)c23)cc1C [Compound 7m, 1-isopropyl-3-(4-methoxy-3-methylphenyl)-1H-pyrazolo[3,4-d]pyrimidin-4-amine]",–,–,IC50 (CpCDPK1): 0.017 µM
"Cc1ccc(C)c(COc2ccc3cc(-c4nn(C(C)C)c5ncnc(N)c45)ccc3c2)c1 [Compound 48, 3-(6-(2,5-dimethylbenzyloxy)naphthalen-2-yl)-1-isopropyl-1H-pyrazolo[3,4-d]pyrimidin-4-amine]",2280,> 3000,–
CC(C)(C)n1nc(-c2ccc(-c3nn(C(C)(C)C)c4ncnc(N)c34)cc2)c2c(N)ncnc21 [Compound 141],1470,2030,inhibition at 3 µM (PfCDPK1): 92%; inhibition at 3 µM (PfCDPK4): 55%
COC(=O)Nc1nc2ccc(C(O)c3ccccc3)cc2[nH]1 (stereo not drawn) [Compound 82],> 3000,> 3000,–
"CC(C)n1nc(-c2ccc3cc(OCc4ccc(Cl)cc4)ccc3c2)c2c(N)ncnc21 [Compound 56, 3-(6-(4-chlorobenzyloxy)naphthalen-2-yl)-1-isopropyl-1H-pyrazolo[3,4-d]pyrimidin-4-amine]",1140,888,IC50 (CpCDPK1; Table 8): 0.105 µM
CC(C)(C)n1nc(-c2ccc3oc(-c4ccccc4)nc3c2)c2c(N)ncnc21 [Compound 131],266,> 3000,–
"Cc1ccccc1COc1ccc2cc(-c3nn(C(C)C)c4ncnc(N)c34)ccc2c1 [Compound 49, 1-isopropyl-3-(6-(2-methylbenzyloxy)naphthalen-2-yl)-1H-pyrazolo[3,4-d]pyrimidin-4-amine]",688,2350,–
"Nc1ncnc2c1c(Cc1cccc3ccccc13)nn2C1CCCCC1 [Compound 5f, 1-cyclohexyl-3-(naphthalen-1-ylmethyl)-1H-pyrazolo[3,4-d]pyrimidin-4-amine]",–,–,IC50 (TgCDPK1; read-out: IC50 (μM) TgCDPK1): 0.946 µM; IC50 (TgCDPK1; read-out: TgCDPK1 IC50): 1 µM

SMILES,EC50 (PfCDPK1) [nM],EC50 (PfCDPK4) [nM],further results
"CC(Oc1ccc2cc(-c3nn(C(C)C)c4ncnc(N)c34)ccc2c1)c1ccccc1 (stereo not drawn) [Compound 53, 1-isopropyl-3-(6-(1-phenylethoxy)naphthalen-2-yl)-1H-pyrazolo[3,4-d]pyrimidin-4-amine]",532,1640,–
"CC(C)n1nc(-c2ccc3cc(OCc4ccncc4)ccc3c2)c2c(N)ncnc21 [Compound 55, 1-isopropyl-3-(6-(pyridin-4-ylmethoxy)naphthalen-2-yl)-1H-pyrazolo[3,4-d]pyrimidin-4-amine]",216,175,–
"Cc1cccc2[nH]c(-c3nn(C(C)C)c4ncnc(N)c34)cc12 [Compound 25, 1-isopropyl-3-(4-methyl-1H-indol-2-yl)-1H-pyrazolo[3,4-d]pyrimidin-4-amine]",–,579,"Cell Toxicity CRL8155, % at 10 μM [1]: 38% toxicity at; Cell Toxicity HL60, % at 10 μM [2]: 47% toxicity at"
"CC(C)n1nc(-c2ccc3cc(OCc4cccc(Cl)c4)ccc3c2)c2c(N)ncnc21 [Compound 47, 3-(6-(3-chlorobenzyloxy)naphthalen-2-yl)-1-isopropyl-1H-pyrazolo[3,4-d]pyrimidin-4-amine]",1290,1430,IC50 (CpCDPK1; Table 8): 0.272 µM
"Nc1ncnc2c1c(-c1ccc3cc(OCc4ccc(Cl)cc4)ccc3c1)nn2CC1CCNCC1 [Compound 39, 3-(6-(4-chlorobenzyloxy)naphthalen-2-yl)-1-(piperidin-4-ylmethyl)-1H-pyrazolo[3,4-d]pyrimidin-4-amine]",21.1,9.2,–
"CC(C)n1nc(-c2cccc(OCc3ccccc3)c2)c2c(N)ncnc21 [Compound 7aa, 3-(3-(benzyloxy)phenyl)-1-isopropyl-1H-pyrazolo[3,4-d]pyrimidin-4-amine]",–,–,inhibition of TgCDPK1 (in words) (TgCDPK1): neither kinase is inhibited; IC50 (TgCDPK1; read-out: IC50 (μM) TgCDPK1): 1.06 µM
"CC(C)n1nc(-c2ccc3cc(OCc4ccc(CC(F)(F)F)c(Cl)c4)ccc3c2)c2c(N)ncnc21 [Compound 51, 3-(6-(3-chloro-4-(2,2,2-trifluorethyl)benzyloxy)naphthalen-2-yl)-1-isopropyl-1H-pyrazolo[3,4-d]pyrimidin-4-amine]",1600,260,–
Nc1ncnc2c1c(-c1ccc3nccnc3c1)nn2CC1CCNCC1 [Compound 122],482,> 3000,"Cell Toxicity CRL8155, % at 10 μM [1]: <30% at 10 μM; Cell Toxicity CRL8155, % at 30 μM ([1]; 30 μM): <30% at 30 μM; Cell Toxicity HL60, % at 10 μM [2]: <30% at 10 μM; Cell Toxicity HL60, % at 30 μM ([2]; 30 μM): <30% at 30 μM"
"CC(C)n1nc(-c2ccc3cc(OCc4cc(F)cc(Cl)c4)ccc3c2)c2c(N)ncnc21 [Compound 52, 3-(6-(3-chloro-5-fluorobenzyloxy)naphthalen-2-yl)-1-isopropyl-1H-pyrazolo[3,4-d]pyrimidin-4-amine]",1070,1230,–
"CC(C)n1nc(-c2cccc(Cc3ccccc3)c2)c2c(N)ncnc21 [Compound 7y, 3-(3-benzylphenyl)-1-isopropyl-1H-pyrazolo[3,4-d]pyrimidin-4-amine]",–,–,inhibition of TgCDPK1 (in words) (TgCDPK1): neither kinase is inhibited; IC50 (TgCDPK1; read-out: IC50 (μM) TgCDPK1): 0.322 µM
"CC(C)n1nc(-c2cccc(-c3ccccc3)c2)c2c(N)ncnc21 [Compound 7z, 3-(biphenyl-3-yl)-1-isopropyl-1H-pyrazolo[3,4-d]pyrimidin-4-amine]",–,–,inhibition of TgCDPK1 (in words) (TgCDPK1): neither kinase is inhibited; IC50 (TgCDPK1; read-out: IC50 (μM) TgCDPK1): 2.23 µM
"COc1ccc(-c2nn(C(C)C)c3ncnc(N)c23)cc1 [Compound 7j, 1-isopropyl-3-(4-methoxyphenyl)-1H-pyrazolo[3,4-d]pyrimidin-4-amine]",–,–,inhibition at 3 µM (PfCDPK1): 87%; IC50 (CpCDPK1): 0.41 µM; inhibition at 3 µM (PfCDPK4): 30%
"Cc1ccc(C(F)(F)F)cc1COc1ccc2cc(-c3nn(C(C)C)c4ncnc(N)c34)ccc2c1 [Compound 50, 1-isopropyl-3-(6-(2-methyl-5-(trifluoromethyl)benzyloxy)naphthalen-2-yl)-1H-pyrazolo[3,4-d]pyrimidin-4-amine]",2090,> 3000,–
CC(C)COc1ccc2cc(-c3nn(C(C)(C)C)c4ncnc(N)c34)ccc2c1 [Compound 130],2950,> 3000,–
O=C(NCCO)Nc1nc2ccc(C(=O)c3ccccc3)cc2[nH]1 [Compound 90],–,–,"Cell Toxicity CRL8155, % at 10 μM [1]: <30% at 10 μM; Cell Toxicity HL60, % at 10 μM [2]: <30% at 10 μM"
Nc1ncnc2c1c(I)nn2CC1CCNCC1 [Compound 98],–,–,"Cell Toxicity CRL8155, % at 10 μM [1]: <30% at 10 μM; Cell Toxicity HL60, % at 10 μM [2]: <30% at 10 μM"
Nc1ncnc2c1c(-c1ccc(-c3ccccc3)cc1)nn2CC1CCNCC1 [Compound 100],74.9,908,–
"Cc1cccc(-c2nn(C(C)C)c3ncnc(N)c23)c1 [Compound 7g, 1-isopropyl-3-m-tolyl-1H-pyrazolo[3,4-d]pyrimidin-4-amine]",–,–,inhibition at 3 µM (PfCDPK1): 72%; IC50 (CpCDPK1): 0.114 µM; inhibition at 3 µM (PfCDPK4): 64%

# From patent US9765037B2, “Compositions and methods for treating toxoplasmosis, cryptosporidiosis, and other apicomplexan protozoan related diseases” (University of Washington Through its Center for …, priority 2010, dated 2017)
